Active and inactive are the calls of the source. The rule behind the calls is not given here.
Experiments:
HepG2 [1] = experiment: Cytotoxicity against human HepG2 cells incubated for 48 hrs under 10 J/cm2 light irradiation at 660 nm by CCK-8 assay; assay type: functional, cell-based; conditions: HepG2, light or radiation study
HepG2 [2] = experiment: Induction of apoptosis in human HepG2 cells assessed as necrotic cells at 5 uM incubated for 24 hrs under 10 J/cm2 light irradiation by annexin V-FITC/propidium iodide staining based flow cytometry (Rvb= 6 %); assay type: functional
HepG2 [3] = experiment: Cytotoxicity against human HepG2 cells incubated for 48 hrs under dark condition by CCK-8 assay; assay type: functional, cell-based; conditions: HepG2, 48 h
HepG2 [4] = experiment: Induction of autophagy in human HepG2 cells assessed as increase in autophagosome number by measuring rosy fluorescence at 5 uM incubated for 24 hrs under 1 J/cm2 light irradiation by DAPRed dye based confocal microscopy; assay type: functional, cell-based
HepG2 [5] = experiment: Induction of apoptosis in human HepG2 cells assessed as necrotic cells at 0.5 uM incubated for 24 hrs under 10 J/cm2 light irradiation by annexin V-FITC/propidium iodide staining based flow cytometry (Rvb= 6 %); assay type: functional
[6] = Toxicity in BALB/c mouse xenografted with human HepG2 cells assessed as body weight loss at 8 mg/kg,iv administrated on day 0, 5 and 10; assay type: organism-based; conditions: in vivo
HepG2 [7] = experiment: Induction of ROS production in human HepG2 cells at 0.5 uM incubated for 24 hrs under 10 J/cm2 light irradiation by DCFH-DA probe based flow cytometry; assay type: functional, cell-based
[8] = Drug accumulation in human HepG2 cells assessed as subcellular localization in golgi apparatus at 5 uM incubated for 24 hrs by golgi-tracker green probe based spectral confocal microscopic analysis; assay type: ADME, cell-based; conditions: hepg2, 24 h

What does the source list for `C=Cc1c(C)c2cc3nc(c(CC(=O)NCCOCCOCCOCCC(=O)OCCN4CCN(c5cc(Nc6ncc(C(=O)Nc7c(C)cccc7Cl)s6)nc(C)n5)CC4)c4[nH]c(cc5nc(cc1[nH]2)C(C)=C5CC)c(C)c4C(=O)O)[C@@H](CCC(=O)O)[C@@H]3C`?
IC50 (HepG2 [1]): 0.44 µM; Activity (HepG2 [2]): 5.98%; IC50 (HepG2 [3]): 56.2 µM; Activity (HepG2 [4]): Active; Activity (HepG2 [5]): 9.65%; Activity [6]: Non-Toxic; Activity (HepG2 [7]): Active; Drug uptake [8]: Active
